According to patent US6979686B1, “Substituted pyrazoles as p38 kinase inhibitors” (Pharmacia Corporation, priority 2001, dated 2005):
Where a name gives a salt, the structure may show the parent alone.

What follows are compounds tested against T1, human p38 kinase alpha (Homo sapiens, UniProt Q16539) (assay: p38 kinase in vitro assay, phosphorylation of biotinylated PHAS-I with 32P-ATP). Conditions: @ 1.0 uM.
T1 construct: GST (N, cleaved yes); made in house; host or cells: E. coli DH10B
Assay type: biochemical

T1 sequence (Q16539 whole entry): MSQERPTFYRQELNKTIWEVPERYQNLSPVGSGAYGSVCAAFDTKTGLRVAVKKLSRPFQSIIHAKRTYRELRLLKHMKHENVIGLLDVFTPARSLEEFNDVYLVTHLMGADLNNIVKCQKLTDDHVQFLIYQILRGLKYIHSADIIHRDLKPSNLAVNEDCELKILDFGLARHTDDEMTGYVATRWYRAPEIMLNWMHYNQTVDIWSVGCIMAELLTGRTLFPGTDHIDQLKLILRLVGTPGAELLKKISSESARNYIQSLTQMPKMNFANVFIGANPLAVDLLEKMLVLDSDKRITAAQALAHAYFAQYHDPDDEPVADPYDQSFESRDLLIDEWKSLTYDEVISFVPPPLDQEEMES

| P38 alpha kinase % inhib @ conc. [% @] | P38 alpha kinase % inhib @ conc. (uM) [% @] | SMILES |
| --- | --- | --- |
| 94.0 | – | CCOC(=O)NCCCc1[nH]nc(-c2ccc(F)cc2)c1-c1ccncc1 [Example B-1231] |
| 81.0 | – | O=C(NCCCc1[nH]nc(-c2ccc(F)cc2)c1-c1ccncc1)C1CCCN1 (stereo not shown) [Example B-1232] |

Continued, compound first:

| SMILES | P38 alpha kinase % inhib @ conc. [% @] | P38 alpha kinase % inhib @ conc. (uM) [% @] |
| --- | --- | --- |
| CN(C(=O)NCCCc1[nH]nc(-c2ccc(F)cc2)c1-c1ccncc1)c1ccccc1 [Example B-1214] | 76.0 | – |
| Cc1ccc(S(=O)(=O)NCCCc2[nH]nc(-c3ccc(F)cc3)c2-c2ccncc2)cc1 [Example B-1204] | 68.0 | – |
| CCN(CC)C(=O)NCCc1[nH]nc(-c2ccc(F)cc2)c1-c1ccncc1 [Example B-1048] | – | 67.0 |
| O=C(NCCc1ccccc1)NCCc1[nH]nc(-c2ccc(F)cc2)c1-c1ccncc1 [Example B-1044] | – | 94.0 |
| O=C(NCCc1[nH]nc(-c2ccc(F)cc2)c1-c1ccncc1)C1CCCC1 [Example B-1004] | – | 79.0 |
| COCC(=O)NCCCc1[nH]nc(-c2ccc(F)cc2)c1-c1ccncc1 [Example B-1171] | – | 78.0 |
| O=C(NCCc1[nH]nc(-c2ccc(F)cc2)c1-c1ccncc1)C1CC1 [Example B-0989] | – | 85.0 |
| O=C(NCCc1[nH]nc(-c2ccc(F)cc2)c1-c1ccncc1)NCc1ccccc1 [Example B-1031] | – | 69.0 |
| Cc1ccc(C(=O)NCCCc2[nH]nc(-c3ccc(F)cc3)c2-c2ccncc2)cc1 [Example B-1179] | – | 86.0 |
| O=C(NCCCc1[nH]nc(-c2ccc(F)cc2)c1-c1ccncc1)c1cccnc1 [Example B-1182] | – | 72.0 |
| O=C(NCCCc1[nH]nc(-c2ccc(F)cc2)c1-c1ccncc1)c1cnc2ccccc2n1 [Example B-1189] | – | 68.0 |
| O=C(NCCCc1[nH]nc(-c2ccc(F)cc2)c1-c1ccncc1)N1CCOCC1 [Example B-1210] | 82.0 | – |

Same assay, conditions: @ 10.0 uM

| P38 alpha kinase IC50, uM or % inhib @ conc. (uM): % inhib [% @] | P38 alpha kinase % inhib @ conc. [% @] | SMILES |
| --- | --- | --- |
| 87.0 | – | Cc1c(-c2ccncc2)c(-c2ccc(F)cc2)nn1CC(=O)Nc1ccccc1C(=O)NC1CCCCC1 [Example B-2451] |
| – | 76.0 | COC(=O)[C@H](COCc1ccccc1)NC(=O)Cn1nc(-c2ccc(F)cc2)c(-c2ccncc2)c1C [Example B-2359] |
| – | 82.0 | Cc1c(-c2ccncc2)c(-c2ccc(F)cc2)nn1CC(=O)NC1CCCCCC1 [Example B-2335] |

Same assay, conditions: @ 100.0 uM

| P38 alpha kinase IC50, uM or % inhib @ conc. (uM): % inhib [% @] | P38 alpha kinase % inhib @ conc. [% @] | SMILES |
| --- | --- | --- |
| 58 | – | Cc1c(-c2ccncc2)c(-c2ccc(F)cc2)nn1CC(=O)N(CCC#N)CC1CCCO1 (stereo not shown) [Example B-2404] |
| – | 73.0 | Cc1c(-c2ccncc2)c(-c2ccc(F)cc2)nn1CC(=O)N1CCCC1 [Example B-2379] |

Same assay, conditions: Table 8; 1% DMSO; read-out: p38α Kinase Assay IC50

| IC50 [nM] | SMILES |
| --- | --- |
| 40 | Clc1ccc(-c2[nH]nc(NC3CCNCC3)c2-c2ccncc2)cc1 [Example A-332, N-[5-(4-chlorophenyl)-4-(4-pyridinyl)-3H-pyrazol-3-yl]-4-piperidineamine, trihydrochloride, monohydrate] |

Same assay, conditions: activated human p38 kinase alpha, PHAS-I substrate, 50 μM unlabeled ATP; read-out: p38 kinase IC50

| IC50 [nM] | SMILES |
| --- | --- |
| 900 | CCOC(=O)CCc1[nH]nc(-c2ccc(Cl)cc2)c1-c1ccncc1 [Example A-53] |
| 2500 | Cc1[nH]nc(-c2cccc(F)c2C)c1-c1ccncc1 [Example A-33] |

Same assay, conditions: in vitro P38-alpha kinase inhibition; read-out: P38 alpha kinase IC50

| IC50 [nM] | SMILES |
| --- | --- |
| 1070 | O=C(NCCc1[nH]nc(-c2ccc(F)cc2)c1-c1ccncc1)c1ccc(F)c(F)c1 [Example B-1129] |
| 39500 | Cc1ccc(S(=O)(=O)NC(Cc2ccccc2)C(=O)NC(Cc2ccccc2)c2[nH]nc(-c3ccc(F)cc3)c2-c2ccncc2)cc1 (stereo not shown) [Example B-0859] |
| 1880 | CC(C)NC(=O)NC(C)c1[nH]nc(-c2ccc(F)cc2)c1-c1ccncc1 (stereo not shown) [Example B-0578] |
| 940 | O=S(=O)(Cc1ccccc1)NC(Cc1ccccc1)c1[nH]nc(-c2ccc(F)cc2)c1-c1ccncc1 (stereo not shown) [Example B-0756] |
| 94 | O=S(=O)(NCCc1[nH]nc(-c2ccc(F)cc2)c1-c1ccncc1)c1ccc2ccccc2c1 [Example B-1103] |
| < 100 | C[C@@H](NS(=O)(=O)Cc1ccccc1[N+](=O)[O-])c1[nH]nc(-c2ccc(F)cc2)c1-c1ccncc1 [Example B-0442] |
| 69 | Cn1cnc(S(=O)(=O)NCCc2[nH]nc(-c3ccc(F)cc3)c2-c2ccncc2)c1 [Example B-1114] |
| 920 | O=C(NC(Cc1ccccc1)c1[nH]nc(-c2ccc(F)cc2)c1-c1ccncc1)C1CCCN1 (stereo not shown) [Example B-0750] |
| 660 | CC(NC(=O)N(C)C)c1[nH]nc(-c2ccc(F)cc2)c1-c1ccncc1 (stereo not shown) [Example B-0584] |
| < 100 | O=S(=O)(NCCc1[nH]nc(-c2ccc(F)cc2)c1-c1ccncc1)c1cccc2nonc12 [Example B-1105] |
| 550 | CC(C)S(=O)(=O)NC(Cc1ccccc1)c1[nH]nc(-c2ccc(F)cc2)c1-c1ccncc1 (stereo not shown) [Example B-0754] |
| 1840 | Cc1ccc(C(=O)NCCc2[nH]nc(-c3ccc(F)cc3)c2-c2ccncc2)cc1 [Example B-1122] |
| 610 | CC(=O)OCC(=O)NC(Cc1ccccc1)c1[nH]nc(-c2ccc(F)cc2)c1-c1ccncc1 (stereo not shown) [Example B-0829] |
| < 100 | Cc1ccc(F)cc1S(=O)(=O)NCCc1[nH]nc(-c2ccc(F)cc2)c1-c1ccncc1 [Example B-1079] |
| 1040 | CC(=O)OCC(=O)NC(Cc1ccccc1)c1[nH]nc(-c2ccc(F)cc2)c1-c1ccncc1 (stereo not shown) [Example B-0797] |
| 600 | CCCCOc1ccc(S(=O)(=O)NC(C)c2[nH]nc(-c3ccc(F)cc3)c2-c2ccncc2)cc1 (stereo not shown) [Example B-0633] |
| 1800 | CC(C)=CC(=O)NC(Cc1ccccc1)c1[nH]nc(-c2ccc(F)cc2)c1-c1ccncc1 (stereo not shown) [Example B-0846] |
| < 100 | CC(NS(=O)(=O)Cc1ccccc1)c1[nH]nc(-c2ccc(F)cc2)c1-c1ccncc1 (stereo not shown) [Example B-0566] |
| 23000 | COc1ccc(NC(=O)NC(Cc2ccccc2)c2[nH]nc(-c3ccc(F)cc3)c2-c2ccncc2)c(OC)c1 (stereo not shown) [Example B-0744] |
| 380 | Cc1cc(C)c(S(=O)(=O)NC(C)c2[nH]nc(-c3ccc(F)cc3)c2-c2ccncc2)c(C)c1 (stereo not shown) [Example B-0616] |
| 2100 | O=S(=O)(NC(Cc1ccccc1)c1[nH]nc(-c2ccc(F)cc2)c1-c1ccncc1)c1ccccc1 (stereo not shown) [Example B-0708] |
| 2540 | CC(NC(=O)NC(C)c1[nH]nc(-c2ccc(F)cc2)c1-c1ccncc1)c1ccccc1 (stereo not shown) [Example B-0414] |
| < 100 | COc1ccc(NC(=O)N[C@H](C)c2[nH]nc(-c3ccc(F)cc3)c2-c2ccncc2)c(OC)c1 [Example B-0422] |
| < 100 | O=S(=O)(NCCc1[nH]nc(-c2ccc(F)cc2)c1-c1ccncc1)c1c(Cl)cccc1Cl [Example B-1081] |
| 1250 | CC(=O)OC(C)(C)C(=O)NC(Cc1ccccc1)c1[nH]nc(-c2ccc(F)cc2)c1-c1ccncc1 (stereo not shown) [Example B-0834] |
| 230 | O=C(NCCc1[nH]nc(-c2ccc(F)cc2)c1-c1ccncc1)c1c(F)cc(F)cc1F [Example B-1135] |
| 580 | Cc1ccc(C)c(S(=O)(=O)NC(C)c2[nH]nc(-c3ccc(F)cc3)c2-c2ccncc2)c1 (stereo not shown) [Example B-0645] |
| 160 | CC(NC(=O)c1ccccc1Cl)c1[nH]nc(-c2ccc(F)cc2)c1-c1ccncc1 (stereo not shown) [Example B-0691] |
| < 100 | O=S(=O)(NCCc1[nH]nc(-c2ccc(F)cc2)c1-c1ccncc1)c1ccccc1Cl [Example B-1091] |

Same assay, conditions: in vitro P38-alpha kinase; read-out: P38 alpha kinase IC50

| IC50 [nM] | SMILES |
| --- | --- |
| 11500 | Cc1c(-c2ccncc2)c(-c2ccc(F)cc2)nn1CC(=O)NCC1CC1 [Example B-2276] |
| 290 | Cc1c(-c2ccncc2)c(-c2ccc(F)cc2)nn1CC(=O)NCC(=O)OC(C)(C)C [Example B-2309] |
| 40 | O=S(=O)(NCCCc1[nH]nc(-c2ccc(F)cc2)c1-c1ccncc1)c1cc(Cl)ccc1Cl [Example B-1243] |
| 8820 | COCCNC(=O)Cn1nc(-c2ccc(F)cc2)c(-c2ccncc2)c1C [Example B-2292] |
| < 100 | O=S(=O)(NCCCc1[nH]nc(-c2ccc(F)cc2)c1-c1ccncc1)c1ccccc1Cl [Example B-1268] |
| 300 | O=C(c1cc(Cl)cc(Cl)c1)N1CCC(c2[nH]nc(-c3ccc(F)cc3)c2-c2ccncc2)CC1 [Example B-1419] |
| 1600 | O=S(=O)(c1ccc(F)cc1F)N1CCC(c2[nH]nc(-c3ccc(F)cc3)c2-c2ccncc2)CC1 [Example B-1454] |
| 2930 | CCSCCNC(=O)Cn1nc(-c2ccc(F)cc2)c(-c2ccncc2)c1C [Example B-2312] |
| < 100 | O=S(=O)(NCc1[nH]nc(-c2ccc(F)cc2)c1-c1ccncc1)c1ccc(-c2ccccc2)cc1 [Example B-0256] |
| 16 | O=C(c1ccncc1)N1CCC(c2[nH]nc(-c3ccc(F)cc3)c2-c2ccncc2)CC1 [Example B-1373] |
| 19 | Cc1c(-c2ccncc2)c(-c2ccc(F)cc2)nn1CC(=O)NCCc1cccnc1 [Example B-2291] |
| 79 | O=S(=O)(NCCCc1[nH]nc(-c2ccc(F)cc2)c1-c1ccncc1)c1cccc2cnccc12 [Example B-1295] |
| < 100 | O=C(c1cccnc1)N1CCC(c2[nH]nc(-c3ccc(F)cc3)c2-c2ccncc2)CC1 [Example B-1387] |
| 43 | O=C(NCCCc1[nH]nc(-c2ccc(F)cc2)c1-c1ccncc1)c1ccc(F)cc1C(F)(F)F [Example B-1340] |
| 5880 | Cc1c(-c2ccncc2)c(-c2ccc(F)cc2)nn1CC(=O)NCCCSC1CCCCC1 [Example B-2306] |
| 16 | COc1ccc(C(=O)N2CCC(c3[nH]nc(-c4ccc(F)cc4)c3-c3ccncc3)CC2)cc1 [Example B-1391] |
| 660 | O=C(NCCCc1[nH]nc(-c2ccc(F)cc2)c1-c1ccncc1)c1cccc2ccccc12 [Example B-1329] |
| 250 | O=C(NCCCc1[nH]nc(-c2ccc(F)cc2)c1-c1ccncc1)c1cc(F)cc(C(F)(F)F)c1 [Example B-1342] |
| 430 | O=S(=O)(c1ccccc1Cl)N1CCC(c2[nH]nc(-c3ccc(F)cc3)c2-c2ccncc2)CC1 [Example B-1457] |
